Source: patent US9102617B2, “Antimicrobial agents” (Rutgers, The State University of New Jersey, priority 2010, dated 2015)
In brackets after ≈: the same amount, converted by molar mass.

What follows are molecules tested on methicillin-sensitive Staphylococcus aureus (MSSA) (assay: Planktonic antibacterial broth microdilution assay (Test C), MIC vs MSSA). Conditions: 37° C., growth read after 24 to 48 hours at OD 600 nm.
Assay type: cell-based
Protocol: Test C. Planktonic (Free-Living) Antibacterial Assay.
Planktonic antibacterial activity can be determined using a broth microdilution assay in which log-phase bacteria are grown at 37° C. in appropriate medium containing two-fold serial dilutions of a compound to yield a final concentration ranging from 256 to 0.1 μg/ml. For determination of minimal inhibitory concentration (MIC) values, bacterial growth is monitored after 24 to 48 hours by measuring optical density at 600 nm. […] The minimal inhibitory concentration against methicillin-sensitive Staphylococcus aureus (MSSA) for each of the following representative compounds of the invention was determined to be less than 32 μg/ml.

Which MIC does the source give for `N=C(N)NCc1cccc2c(-c3ccc(Cl)cc3)cccc12` [Example 52] here?
The MIC was at most 8 µg/mL.

`COC(=O)c1ccc(-c2ccc3c(-c4ccc(C(C)(C)C)cc4)cccc3c2)c(CNC(=N)N)c1` [Example 101] was tested. Which MIC did it give?
The MIC was at most 8 µg/mL.

For `COc1cc2cc(-c3cc(OC)c(OC)c(-c4ccc(-c5ccccc5)cc4)c3)c[n+](C)c2cc1OC.[I-]` [Example 13], which MIC is on record?
Its MIC is at most 8 µg/mL.

Which MIC does the source give for `COc1cc(-c2cc3ccc(OC)c(OC)c3[n+](C)c2)cc(-c2cccc(C(C)(C)C)c2)c1OC.[I-]` [Example 28] here?
Its MIC is at most 8 µg/mL.

Which MIC does the source give for `C[N+](C)(C)c1ccc(-c2ccc3c(-c4ccc(F)cc4)cccc3c2)cc1.[I-]` [Example 76] here?
Its MIC is at most 8 µg/mL.

`CCC[n+]1cc(-c2cc(OC)c(OC)c(-c3ccc(-c4ccccc4)cc3)c2)cc2cc(OC)c(OC)cc21.[I-]` [Example 14] was tested. Which MIC did it give?
The MIC was at most 8 µg/mL.

For `COc1cc(C(F)(F)F)ccc1-c1cccc2c(CCN=C(N)N)cccc12` [Example 45], which MIC is on record?
The MIC was at most 8 µg/mL.

With `COc1cc(-c2cc3cc4c(cc3[n+](C)c2)OCO4)cc(-c2ccc(C(C)(C)C)cc2)c1OC.[I-]` [Example 26a] as the molecule, how does the MIC read?
The MIC was at most 8 µg/mL.

Which MIC does the source give for `CN(C)Cc1ccccc1-c1ccc2c(-c3ccc(C(C)(C)C)cc3)cccc2c1` [Example 60, (2-(1-(4-t-butylphenyl)naphthalen-6-yl)phenyl)-N,N-dimethylmethanamine] here?
The MIC was 32 µg/mL (≈ 81.3 µM).

How did the MIC turn out when `C[N+](C)(C)c1cccc(-c2ccc3c(-c4cccc(-c5ccc(C(F)(F)F)cc5)c4)cccc3c2)c1.[I-]` [Example 80] was run?
The MIC was at most 8 µg/mL.

How did the MIC turn out when `CC(C)(C)c1ccc(-c2ccc(CCN)c3ccccc23)cc1` [Example 38, 2-(4-(4-(t-butyl)phenyl)naphthalen-1-yl)ethanamine] was run?
Its MIC is at most 8 µg/mL.

Which MIC does the source give for `C[n+]1c(-c2ccccc2)ccc2ccccc21.[I-]` [Comparative Example B, reference compound] here?
The MIC was over 64 µg/mL.

Which MIC does the source give for `C[N+](C)(C)c1ccc(-c2ccc3c(-c4cccc(-c5ccccc5)c4)cccc3c2)cc1.[I-]` [Example 69] here?
Its MIC is at most 8 µg/mL.

For `CC(C)(C)c1ccc(-c2cccc3cc(-c4ccc([N+](C)(C)C)cc4)ccc23)cc1.[I-]` [Example 100], which MIC is on record?
Its MIC is at most 8 µg/mL.

`CCC[n+]1cc(-c2cc(OC)c(OC)c(-c3ccc(C4CCCCC4)cc3)c2)cc2cc(OC)c(OC)cc21.[I-]` [Example 22] was tested. Which MIC did it give?
The MIC was at most 8 µg/mL.

With `COc1cc(C(F)(F)F)ccc1-c1cccc2c(CCN)cccc12` [Example 44, 2-(5-(2-Methoxy-4-(trifluoromethyl)phenyl)naphthalen-1-yl)ethanamine] as the molecule, how does the MIC read?
Its MIC is at most 8 µg/mL.

For `COc1cc(-c2cc3ccccc3[n+](C)c2)cc(-c2ccc(F)cc2)c1OC.[I-]` [Example 4], which MIC is on record?
Its MIC is 16 µg/mL.

How did the MIC turn out when `COC(=O)c1ccc(-c2ccc3c(-c4ccc(C(C)(C)C)cc4)cccc3c2)c(CN)c1` [Example 89, methyl 4-(1-(4-t-butylphenyl)naphthalen-6-yl)-3-(aminomethyl)benzoate] was run?
The MIC was at most 8 µg/mL.

With `C[n+]1cc(-c2ccc(-c3ccccc3)cc2)c2ccccc2c1.[I-]` [Example 107] as the molecule, how does the MIC read?
The MIC was at most 8 µg/mL.

With `N=C(N)NCc1ccccc1-c1ccc2c(-c3cccc(-c4ccccc4)c3)cccc2c1` [Example 105] as the molecule, how does the MIC read?
Its MIC is at most 8 µg/mL.

For `COc1cc(-c2cc3ccccc3[n+](C)c2)cc(-c2cccc(-c3ccc(F)cc3)c2)c1OC.[I-]` [Example 6], which MIC is on record?
Its MIC is at most 8 µg/mL.

With `C[N+](C)(C)c1cccc(-c2ccc3c(-c4cc(-c5ccc(F)cc5)cc(-c5ccc(F)cc5)c4)cccc3c2)c1.[I-]` [Example 82] as the molecule, how does the MIC read?
Its MIC is at most 8 µg/mL.

How did the MIC turn out when `COC(=O)c1ccc(-c2ccc3c(-c4ccc(C(C)(C)C)cc4)cccc3c2)c(C[N+](C)(C)C)c1.[I-]` [Example 84] was run?
The MIC was at most 8 µg/mL.

Which MIC does the source give for `COc1cc(CC(=N)N)c(-c2ccc3c(-c4ccc(C(C)(C)C)cc4)cccc3c2)cc1OC` [Example 103] here?
The MIC was at most 8 µg/mL.

How did the MIC turn out when `COc1cc(C(F)(F)F)ccc1-c1cccc2c(CN=C(N)N)cccc12` [Example 43] was run?
The MIC was at most 8 µg/mL.

`C[N+](C)(C)c1cccc(-c2ccc3c(-c4ccc(F)cc4)cccc3c2)c1.[I-]` [Example 74] was tested. Which MIC did it give?
Its MIC is at most 8 µg/mL.

`C[N+](C)(C)c1cccc(-c2ccc3c(-c4ccc(-c5ccccc5)cc4)cccc3c2)c1.[I-]` [Example 93] was tested. Which MIC did it give?
The MIC was at most 8 µg/mL.
